Measurements reported in patent US11793815B2, “Oxindoles and methods of use thereof” (ALIGOS THERAPEUTICS, INC., priority 2020, dated 2023).

Biological target: T1, human thyroid receptor beta ligand-binding domain (LBD) (Homo sapiens, UniProt P10828)
T1 construct: Thyroid receptor beta LBD was added to the plate at a final concentration of 1 nM; purchased Invitrogen
T1 sequence (P10828 217-461 limits assumed): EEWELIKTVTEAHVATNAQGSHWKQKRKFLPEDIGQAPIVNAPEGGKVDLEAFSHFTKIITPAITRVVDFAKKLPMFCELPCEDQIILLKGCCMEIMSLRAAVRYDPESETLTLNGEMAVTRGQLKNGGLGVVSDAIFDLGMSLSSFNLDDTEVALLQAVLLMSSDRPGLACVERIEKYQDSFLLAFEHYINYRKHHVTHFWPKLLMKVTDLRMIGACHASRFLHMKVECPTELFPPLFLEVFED
Experiment: THR Biochemical Assay (Assay 1): TR-FRET thyroid receptor beta coactivator assay
Conditions: GST-tagged thyroid receptor beta LBD 1 nM, fluorescein SRC2-2 coactivator peptide 200 nM, 1 hr at rt, TR-FRET ratio 520:495; read-out: Assay 1 (EC50, THR-beta agonist)
Description: THR Biochemical Assay (Assay 1)
The TR-FRET thyroid receptor beta coactivator assay was used with slight, optimized modifications of the manufacturer's protocol (Invitrogen). The assay uses a terbium-labeled anti-GST antibody, a glutathione-S-transferase (GST) tagged human thyroid receptor, beta or alpha, ligand-binding domain (LBD), and a fluorescein labeled SRC2-2 coactivator peptide. The antibody interacts with the LBD, where the agonist also binds, resulting in increased affinity for the SRC2-2 coactivator peptide causing energy transfer […] the acceptor fluorophore and a FRET emission shift from 495 to 520 nm. The energy transfer was detected as an increase in the fluorescence emission of the fluorescein acceptor, and a decrease in the fluorescence emission of the terbium donor. The assay was performed in a 384-well black plate in a final volume of 20 μL. Serial dilution of various test agonists was performed in DMSO (1% final DMSO concentration) and added to the test plate. Thyroid receptor beta LBD was added to the plate at a final concentration of 1 nM, followed by the mixture of the fluorescein labeled SRC2-2 coactivator peptide, and the terbium-labeled anti-GST antibody at final concentrations of 200 nM and 2 nM respectively. The assay was incubated for 1 hr at rt protected from light. The TR-FRET was then measured on a Victor multilabel reader (Perkin Elmer) using an excitation wavelength of 340 nm with emission filters of 495 nm and 520 nm. The assay was quantified by expressing a ratio (520:495) of the intensities, and the resulting activation curves; EC50 values were generated using a sigmoidal dose response (variable slope) equation in GraphPad™ Prism 8.0.

| EC50 [µM] | Structure (SMILES) |
| --- | --- |
| < 0.05 | Cc1cc(-n2nc(N)c(=O)[nH]c2=O)cc(C)c1Oc1ccc2c(c1)C1(CCCC1)C(=O)N2 [Compound 28, 6-amino-2-(3,5-dimethyl-4-((2′-oxospiro[cyclopentane-1,3′-indolin]-5′-yl)oxy)phenyl)-1,2,4-triazine-3,5(2H,4H)-dione] |
| < 0.05 | Cc1cc(-n2nc(C#N)c(=O)[nH]c2=O)cc(C)c1Oc1ccc2c(c1)C1(CCC1)C(=O)N2 [Compound 3, 2-(3,5-dimethyl-4-((2′-oxospiro[cyclobutane-1,3′-indolin]-5′-yl)oxy)phenyl)-3,5-dioxo-2,3,4,5-tetrahydro-1,2,4-triazine-6-carbonitrile] |
| > 25 | CN1C(=O)C2(CC2)c2cc(Oc3c(Cl)cc(-n4nc(N)c(=O)[nH]c4=O)cc3Cl)ccc21 [Compound 26, 6-amino-2-(3,5-dichloro-4-((1′-methyl-2′-oxospiro[cyclopropane-1,3′-indolin]-5′-yl)oxy)phenyl)-1,2,4-triazine-3,5(2H,4H)-dione] |
| < 0.05 | O=C1Nc2ccc(Oc3c(Cl)cc(-c4n[nH]c(=O)[nH]c4=O)cc3Cl)cc2C12CCC2 [Compound 15, 6-(3,5-dichloro-4-((2′-oxospiro[cyclobutane-1,3′-indolin]-5′-yl)oxy)phenyl)-1,2,4-triazine-3,5(2H,4H)-dione] |
| < 0.05 | O=C(Nc1cc(Cl)c(Oc2ccc3c(c2)C2(CC2)C(=O)N3)c(Cl)c1)c1noc(=O)[nH]1 [Compound 22, N-(3,5-dichloro-4-((2′-oxospiro[cyclopropane-1,3′-indolin]-5′-yl)oxy)phenyl)-5-oxo-4,5-dihydro-1,2,4-oxadiazole-3-carboxamide] |
| < 0.05 | O=C(Nc1cc(Cl)c(Oc2ccc3c(c2)C2(CCC2)C(=O)N3)c(Cl)c1)c1noc(=O)[nH]1 [Compound 14, N-(3,5-dichloro-4-((2′-oxospiro[cyclobutane-1,3′-indolin]-5′-yl)oxy)phenyl)-5-oxo-4,5-dihydro-1,2,4-oxadiazole-3-carboxamide] |
| 0.25 to 1 | Nc1nn(-c2cc(Cl)c(Oc3cnc4c(c3)C3(CC3)C(=O)N4)c(Cl)c2)c(=O)[nH]c1=O [Compound 45, 6-amino-2-(3,5-dichloro-4-((2′-oxo-1′,2′-dihydrospiro[cyclopropane-1,3′-pyrrolo[2,3-b]pyridin]-5′-yl)oxy)phenyl)-1,2,4-triazine-3,5(2H,4H)-dione] |
| < 0.05 | O=C(Nc1cc(Cl)c(Oc2ccc3c(c2)C2(CC2)C(=O)N3)c(C(F)(F)F)c1)c1noc(=O)[nH]1 [Compound 44, N-(3-chloro-4-((2′-oxospiro[cyclopropane-1,3′-indolin]-5′-yl)oxy)-5-(trifluoromethyl)phenyl)-5-oxo-4,5-dihydro-1,2,4-oxadiazole-3-carboxamide] |
| < 0.05 | O=C1Nc2ccc(Oc3c(Cl)cc(-n4ncc(=O)[nH]c4=O)cc3Cl)c(Cl)c2C12CC2 [Compound 31, 2-(3,5-dichloro-4-((4′-chloro-2′-oxospiro[cyclopropane-1,3′-indolin]-5′-yl)oxy)phenyl)-1,2,4-triazine-3,5(2H,4H)-dione] |
| < 0.05 | O=C(O)C(=O)Nc1cc(Cl)c(Oc2ccc3c(c2)C2(CCC2)C(=O)N3)c(Cl)c1 [Compound 13, 2-((3,5-dichloro-4-((2′-oxospiro[cyclobutane-1,3′-indolin]-5′-yl)oxy)phenyl)amino)-2-oxoacetic acid] |
| > 25 | Cc1cc(-n2nc(N)c(=O)[nH]c2=O)cc(C)c1Cc1ccc2c(c1)C1(CC(F)(F)C1)C(=O)N2 [Compound 8, 6-amino-2-(4-{3,3-difluoro-2′-oxo-1′H-spiro[cyclobutane-1,3′-indol]-5′-ylmethyl}-3,5-dimethylphenyl)-4H-1,2,4-triazine-3,5-dione] |
| < 0.05 | CC1CC12C(=O)Nc1ccc(Oc3c(Cl)cc(NC(=O)C(=O)O)cc3Cl)cc12 (single isomer, unassigned) [Compound 35, 2-((3,5-dichloro-4-((2-methyl-2′-oxospiro[cyclopropane-1,3′-indolin]-5′-yl)oxy)phenyl)amino)-2-oxoacetic acid] |
| > 25 | Cc1cc2c(cc1Oc1c(Cl)cc(-n3nc(N)c(=O)[nH]c3=O)cc1Cl)C1(CCC1)C(=O)N2 [Compound 19, 6-amino-2-(3,5-dichloro-4-((6′-methyl-2′-oxospiro[cyclobutane-1,3′-indolin]-5′-yl)oxy)phenyl)-1,2,4-triazine-3,5(2H,4H)-dione] |
| < 0.05 | Cc1cc(-n2nc(N)c(=O)[nH]c2=O)cc(C)c1Oc1ccc2c(c1)C1(CCC1)C(=O)N2 [Compound 24, 6-amino-2-(3,5-dimethyl-4-((2′-oxospiro[cyclobutane-1,3′-indolin]-5′-yl)oxy)phenyl)-1,2,4-triazine-3,5(2H,4H)-dione] |
| 0.05 to 0.25 | Nc1nn(-c2cc(Cl)c(Oc3ccc4c(c3)C3(CC(F)(F)C3)C(=O)N4)c(Cl)c2)c(=O)[nH]c1=O [Compound 11, 6-amino-2-(3,5-dichloro-4-((3,3-difluoro-2′-oxospiro[cyclobutane-1,3′-indolin]-5′-yl)oxy)phenyl)-1,2,4-triazine-3,5(2H,4H)-dione] |
| < 0.05 | Cc1c(Oc2c(Cl)cc(-n3nc(N)c(=O)[nH]c3=O)cc2Cl)ccc2c1C1(CCC1)C(=O)N2 [Compound 18, 6-amino-2-(3,5-dichloro-4-((4′-methyl-2′-oxospiro[cyclobutane-1,3′-indolin]-5′-yl)oxy)phenyl)-1,2,4-triazine-3,5(2H,4H)-dione] |
| < 0.05 | O=C(O)C(=O)Nc1cc(Cl)c(Oc2ccc3c(c2)C(F)(F)C(=O)N3)c(Cl)c1 [Compound 36, 2-((3,5-dichloro-4-((3,3-difluoro-2-oxoindolin-5-yl)oxy)phenyl)amino)-2-oxoacetic acid] |
| < 0.05 | O=C(Nc1cc(Cl)c(Oc2ccc3c(c2F)C2(CC2)C(=O)N3)c(Cl)c1)c1noc(=O)[nH]1 [Compound 40, N-(3,5-dichloro-4-((4′-fluoro-2′-oxospiro[cyclopropane-1,3′-indolin]-5′-yl)oxy)phenyl)-5-oxo-4,5-dihydro-1,2,4-oxadiazole-3-carboxamide] |
